For one molecule, IC50 results are on record in BindingDB's records for patent US11555039 (Translational Drug Development, 2023).

The target of this test is Rho-associated protein kinase 2 (Homo sapiens, UniProt O75116). Kind of test: Kinase Inhibition.
Sequence of Rho-associated protein kinase 2 (O75116 whole entry): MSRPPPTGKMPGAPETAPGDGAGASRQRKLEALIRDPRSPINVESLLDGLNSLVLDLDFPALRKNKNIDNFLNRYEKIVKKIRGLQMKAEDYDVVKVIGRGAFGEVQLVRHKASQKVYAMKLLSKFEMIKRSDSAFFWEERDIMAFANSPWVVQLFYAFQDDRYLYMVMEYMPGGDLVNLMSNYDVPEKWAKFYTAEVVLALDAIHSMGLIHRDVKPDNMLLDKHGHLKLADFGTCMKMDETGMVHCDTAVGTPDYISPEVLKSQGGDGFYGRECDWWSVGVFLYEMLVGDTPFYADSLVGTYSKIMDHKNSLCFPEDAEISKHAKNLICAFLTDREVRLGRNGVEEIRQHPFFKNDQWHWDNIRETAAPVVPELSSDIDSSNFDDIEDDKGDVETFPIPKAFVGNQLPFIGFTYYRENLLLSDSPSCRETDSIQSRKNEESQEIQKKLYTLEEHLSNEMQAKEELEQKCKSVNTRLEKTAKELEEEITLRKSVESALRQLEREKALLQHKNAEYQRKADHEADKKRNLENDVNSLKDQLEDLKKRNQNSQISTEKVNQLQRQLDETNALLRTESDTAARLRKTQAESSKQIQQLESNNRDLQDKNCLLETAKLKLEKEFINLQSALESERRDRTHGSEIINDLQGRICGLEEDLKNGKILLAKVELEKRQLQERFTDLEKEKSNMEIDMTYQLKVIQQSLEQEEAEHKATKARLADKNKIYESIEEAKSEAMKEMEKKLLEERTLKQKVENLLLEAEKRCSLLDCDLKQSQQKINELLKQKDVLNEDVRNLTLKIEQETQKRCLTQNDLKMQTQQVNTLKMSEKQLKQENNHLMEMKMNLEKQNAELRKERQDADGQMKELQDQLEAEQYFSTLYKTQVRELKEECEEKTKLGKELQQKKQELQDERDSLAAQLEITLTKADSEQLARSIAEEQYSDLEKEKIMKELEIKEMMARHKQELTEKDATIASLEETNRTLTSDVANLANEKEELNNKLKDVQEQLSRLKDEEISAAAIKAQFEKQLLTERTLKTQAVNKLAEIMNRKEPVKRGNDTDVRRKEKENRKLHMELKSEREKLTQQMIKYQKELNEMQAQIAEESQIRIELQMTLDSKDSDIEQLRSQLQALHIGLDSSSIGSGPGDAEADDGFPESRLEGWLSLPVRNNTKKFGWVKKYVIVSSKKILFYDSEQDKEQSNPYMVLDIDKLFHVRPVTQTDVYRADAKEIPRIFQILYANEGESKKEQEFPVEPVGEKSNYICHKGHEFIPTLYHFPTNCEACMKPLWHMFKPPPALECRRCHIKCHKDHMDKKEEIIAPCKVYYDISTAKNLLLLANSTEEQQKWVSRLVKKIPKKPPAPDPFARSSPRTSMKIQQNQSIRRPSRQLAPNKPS

Turning to `CCOc1ccc(NC(=O)c2cccc([C@@H](CO)NC(=O)c3ccc(-c4ccncc4)cc3)c2)cn1` [US11555039, Compound ID 93], inhibition was half-maximal at 0.51 nM (IC50).
